Read-outs that look alike come from different tables or passages of the source.
Tests used:
[1] = target: HCV polymerase (Hepatitis C virus genotype 1b, UniProt Q9WMX2); assay: HCV polymerase inhibition assay; assay type: biochemical; details: for IC50: second symbol of RSV / HCV, read-out: HCV polymerase inhibition class (IC50)
[2] = target: RSV RNP complex (Human respiratory syncytial virus A, UniProt P28887); assay: biochemical; assay type: biochemical; details: for IC50: first symbol of RSV / HCV, read-out: RSV polymerase inhibition class (IC50, RSV RNP complex); for inhibition of RSV RNP complex (in words): Fig 5B
RSV RNP complex, sequence (P03421 whole entry): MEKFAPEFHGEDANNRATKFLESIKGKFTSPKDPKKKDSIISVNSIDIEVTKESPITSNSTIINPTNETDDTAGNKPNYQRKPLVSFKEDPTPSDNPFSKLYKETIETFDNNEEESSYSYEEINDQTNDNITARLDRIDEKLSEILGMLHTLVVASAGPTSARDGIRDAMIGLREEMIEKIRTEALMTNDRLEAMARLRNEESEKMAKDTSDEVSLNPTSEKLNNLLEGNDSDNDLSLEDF
RSV RNP complex, sequence (P28887 whole entry): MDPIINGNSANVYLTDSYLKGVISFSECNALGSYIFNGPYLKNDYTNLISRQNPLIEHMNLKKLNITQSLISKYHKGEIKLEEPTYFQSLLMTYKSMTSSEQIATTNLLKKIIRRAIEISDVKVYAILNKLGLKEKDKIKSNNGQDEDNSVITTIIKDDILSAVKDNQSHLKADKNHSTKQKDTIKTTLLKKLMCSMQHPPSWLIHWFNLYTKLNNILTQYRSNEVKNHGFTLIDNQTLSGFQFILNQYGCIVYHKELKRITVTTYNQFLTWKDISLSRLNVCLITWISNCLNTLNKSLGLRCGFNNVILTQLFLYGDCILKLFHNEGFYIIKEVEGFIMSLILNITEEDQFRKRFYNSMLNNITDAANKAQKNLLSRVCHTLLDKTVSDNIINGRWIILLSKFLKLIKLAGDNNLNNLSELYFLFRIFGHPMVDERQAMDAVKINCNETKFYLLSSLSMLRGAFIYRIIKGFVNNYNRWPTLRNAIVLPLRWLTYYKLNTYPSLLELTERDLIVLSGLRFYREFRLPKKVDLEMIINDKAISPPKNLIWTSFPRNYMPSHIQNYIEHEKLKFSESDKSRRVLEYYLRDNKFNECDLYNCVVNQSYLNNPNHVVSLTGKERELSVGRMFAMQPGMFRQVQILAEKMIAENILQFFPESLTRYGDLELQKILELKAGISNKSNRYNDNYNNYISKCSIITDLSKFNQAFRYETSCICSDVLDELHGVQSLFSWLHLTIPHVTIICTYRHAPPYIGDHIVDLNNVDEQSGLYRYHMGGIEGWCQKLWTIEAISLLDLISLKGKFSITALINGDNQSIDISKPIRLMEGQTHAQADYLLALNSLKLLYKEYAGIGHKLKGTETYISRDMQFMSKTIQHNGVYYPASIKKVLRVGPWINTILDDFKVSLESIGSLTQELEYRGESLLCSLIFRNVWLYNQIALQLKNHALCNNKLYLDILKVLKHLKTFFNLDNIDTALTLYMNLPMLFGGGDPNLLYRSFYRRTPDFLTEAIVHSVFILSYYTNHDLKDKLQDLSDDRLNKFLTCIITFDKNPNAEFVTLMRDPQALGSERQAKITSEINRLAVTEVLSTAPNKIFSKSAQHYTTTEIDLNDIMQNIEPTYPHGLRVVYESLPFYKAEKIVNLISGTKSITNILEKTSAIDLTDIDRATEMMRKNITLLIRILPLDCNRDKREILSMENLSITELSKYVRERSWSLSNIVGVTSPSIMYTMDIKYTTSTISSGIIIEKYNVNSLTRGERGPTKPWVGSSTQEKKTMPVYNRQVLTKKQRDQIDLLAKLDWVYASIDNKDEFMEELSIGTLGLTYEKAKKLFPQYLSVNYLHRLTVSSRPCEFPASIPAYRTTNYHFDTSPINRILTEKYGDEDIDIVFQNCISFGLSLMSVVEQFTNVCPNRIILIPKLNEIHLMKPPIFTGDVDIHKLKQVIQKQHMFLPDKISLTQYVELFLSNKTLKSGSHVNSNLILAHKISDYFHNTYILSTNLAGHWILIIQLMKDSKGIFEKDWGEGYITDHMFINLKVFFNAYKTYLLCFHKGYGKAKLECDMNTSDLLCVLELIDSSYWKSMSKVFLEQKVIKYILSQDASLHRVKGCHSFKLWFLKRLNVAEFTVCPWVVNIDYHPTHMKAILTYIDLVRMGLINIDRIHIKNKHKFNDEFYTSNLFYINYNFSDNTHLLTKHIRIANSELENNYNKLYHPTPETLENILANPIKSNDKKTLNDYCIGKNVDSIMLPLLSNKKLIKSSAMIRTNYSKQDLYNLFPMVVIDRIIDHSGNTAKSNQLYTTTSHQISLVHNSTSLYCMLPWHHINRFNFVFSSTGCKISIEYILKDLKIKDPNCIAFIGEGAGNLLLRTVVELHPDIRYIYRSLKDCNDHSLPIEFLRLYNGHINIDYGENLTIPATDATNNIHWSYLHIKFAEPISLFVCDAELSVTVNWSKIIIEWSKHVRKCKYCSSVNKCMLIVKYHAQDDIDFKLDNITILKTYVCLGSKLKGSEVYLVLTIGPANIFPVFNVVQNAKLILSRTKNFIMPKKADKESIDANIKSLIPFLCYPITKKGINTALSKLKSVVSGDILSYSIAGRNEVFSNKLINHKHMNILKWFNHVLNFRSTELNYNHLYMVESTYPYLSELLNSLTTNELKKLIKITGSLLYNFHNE

[3] = target: T1, wild-type RSV L-P RNA polymerase complex (Human respiratory syncytial virus A, UniProt P28887); assay type: biochemical
T1 construct: made in house; host or cells: insect cells

[4] = target: human mitochondrial RNA polymerase (Homo sapiens, UniProt O00411); assay: DdRp assay with human mitochondrial RNA polymerase, single turnover; assay type: biochemical
human mitochondrial RNA polymerase, sequence (O00411 42-1230): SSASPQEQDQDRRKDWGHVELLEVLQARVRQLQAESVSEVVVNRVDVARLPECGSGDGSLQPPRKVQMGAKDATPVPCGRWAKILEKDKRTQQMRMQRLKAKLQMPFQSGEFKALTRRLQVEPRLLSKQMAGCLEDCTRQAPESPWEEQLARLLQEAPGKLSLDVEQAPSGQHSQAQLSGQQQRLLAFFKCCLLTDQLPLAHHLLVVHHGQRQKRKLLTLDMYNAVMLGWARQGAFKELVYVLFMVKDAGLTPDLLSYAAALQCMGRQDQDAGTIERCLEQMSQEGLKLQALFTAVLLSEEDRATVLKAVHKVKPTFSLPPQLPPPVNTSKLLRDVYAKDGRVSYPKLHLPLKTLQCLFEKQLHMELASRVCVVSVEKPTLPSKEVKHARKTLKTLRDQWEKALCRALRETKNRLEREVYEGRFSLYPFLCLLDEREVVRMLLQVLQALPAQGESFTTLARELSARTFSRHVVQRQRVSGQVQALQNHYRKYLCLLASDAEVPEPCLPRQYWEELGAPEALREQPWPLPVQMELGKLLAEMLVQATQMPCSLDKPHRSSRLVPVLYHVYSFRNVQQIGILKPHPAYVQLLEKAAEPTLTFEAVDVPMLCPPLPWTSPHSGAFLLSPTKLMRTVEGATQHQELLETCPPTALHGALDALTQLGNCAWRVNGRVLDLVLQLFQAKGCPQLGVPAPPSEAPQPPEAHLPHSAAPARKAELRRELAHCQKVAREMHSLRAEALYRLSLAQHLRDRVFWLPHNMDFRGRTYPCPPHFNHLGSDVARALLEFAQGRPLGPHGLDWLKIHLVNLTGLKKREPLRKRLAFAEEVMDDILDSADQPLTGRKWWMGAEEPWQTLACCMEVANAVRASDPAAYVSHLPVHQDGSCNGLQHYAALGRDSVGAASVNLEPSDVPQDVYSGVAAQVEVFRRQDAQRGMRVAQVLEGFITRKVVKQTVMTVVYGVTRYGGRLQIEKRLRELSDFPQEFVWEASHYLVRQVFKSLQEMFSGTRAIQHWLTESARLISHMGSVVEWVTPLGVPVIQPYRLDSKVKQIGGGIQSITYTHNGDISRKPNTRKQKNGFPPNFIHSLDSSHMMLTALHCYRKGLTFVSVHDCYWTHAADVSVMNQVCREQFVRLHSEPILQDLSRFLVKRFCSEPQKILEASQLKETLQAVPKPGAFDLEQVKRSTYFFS

[5] = target: RSV polymerase QUAD mutant (Human respiratory syncytial virus A, UniProt P28887, A789V/I796V/L795I/M628L); assay: Single nucleotide incorporation by recombinant RSV L-P polymerase, QUAD mutant; assay type: biochemical
[6] = design: method as in PMID 25667954; details: cited from earlier work
[7] = test system: RSV A2; assay: African Green monkey efficacy model; assay type: in vivo, African Green monkeys (Chlorocebus sabaeus); details: oral BID, 200 mg/kg loading then 50 mg/kg, 6 days
[8] = test system: RSV replicon; assay: RSV subgenomic replicon assay (luciferase); assay type: cell-based, Respiratory syncytial virus
Protocol: The RSV subgenomic replicon (Apath, Brooklyn, NY, USA) was used as previously described. The HeLa-derived cells containing the stable RSV replicon were cultured in DMEM containing 4500 mg/L D-glucose, L-glutamine, and 110 mg/L sodium pyruvate. The medium was further supplemented with 10% (v/v) FBS (Mediatech), 1% (v/v) penicillin/streptomycin (Mediatech), and 10 μg/mL of Blasticidin (BSD) (Invivogen). Cells were maintained at 37°C in a humidified 5% CO2 atmosphere. On the first day, 5000 RSV replicon cells per well were plated in a 96-well plate. On the following day, compounds to be tested were solubilized in 100% DMSO to 100 × the desired final testing concentration. Cells were incubated with compounds for 7 days at 37°C in a 5% CO2 atmosphere before measurement of the luciferase readout. Cell viability (CC50) was measured with a CellTiter-Glo cell proliferation assay (Promega).

HCV polymerase, sequence (Q9WMX2 2420-3010): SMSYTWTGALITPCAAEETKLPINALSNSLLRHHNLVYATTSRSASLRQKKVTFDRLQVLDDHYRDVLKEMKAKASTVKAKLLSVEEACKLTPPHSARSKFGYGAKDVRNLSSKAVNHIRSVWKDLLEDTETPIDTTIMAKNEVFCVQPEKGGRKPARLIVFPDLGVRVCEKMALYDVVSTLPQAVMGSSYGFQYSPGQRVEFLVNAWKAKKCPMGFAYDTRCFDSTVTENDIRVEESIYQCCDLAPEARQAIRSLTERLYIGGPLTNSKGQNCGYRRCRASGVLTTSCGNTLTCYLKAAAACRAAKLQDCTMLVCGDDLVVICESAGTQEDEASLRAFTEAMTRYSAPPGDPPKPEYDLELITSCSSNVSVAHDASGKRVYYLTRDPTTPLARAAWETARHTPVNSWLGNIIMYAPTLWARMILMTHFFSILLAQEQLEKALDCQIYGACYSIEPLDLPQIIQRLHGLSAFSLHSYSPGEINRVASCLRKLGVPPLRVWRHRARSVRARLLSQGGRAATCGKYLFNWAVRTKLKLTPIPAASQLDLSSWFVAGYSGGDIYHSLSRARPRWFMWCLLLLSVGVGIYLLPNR

| Compound | IC50 [1] [µM] | IC50 [2] [µM] | inhibition of HCV polymerase (in words) ([1]; Fig 5B) | inhibition of RSV RNP complex (in words) [2] | substrate and chain termination profile with recombinant RSV polymerase (in words) ([3]; Fig 5A) | also measured |
| --- | --- | --- | --- | --- | --- | --- |
| Nc1ccn([C@@H]2O[C@](CCl)(COP(=O)(O)OP(=O)(O)OP(=O)(O)O)[C@@H](O)C2(F)F)c(=O)n1 [2'diF-4'ClCH2-CTP] | > 10 | > 10 | – | – | – | substrate and chain termination profile with recombinant RSV polymerase (in words) [3]: almost completely inactive |
| Nc1ccn([C@@H]2O[C@H](COP(=O)(O)OP(=O)(O)OP(=O)(O)O)[C@@H](O)[C@H]2F)c(=O)n1 [2'F-CTP] | – | – | – | – | – | inhibition of HCV polymerase (in words) [1]: did not efficiently inhibit; recognition as substrate by human mitochondrial RNA polymerase (in words) [4]: recognized as a substrate |
| 4'ClCH2-CTP | 0.1 to 10 | 0.1 to 10 | dual RSV/HCV polymerase inhibitors | dual RSV/HCV polymerase inhibitors | less efficiently recognized | discrimination relative to natural CTP, WT RSV polymerase ([3]; Km CTP analog / Km CTP): 288±48 fold; Km ([3]; primer extension from the +3 position, read-out: Km, single nucleotide incorporation, WT RSV L-P): 16 ± 2.7 µM; Km ([5]; primer extension from the +3 position, n = 2): 198 ± 18 µM; increase in discrimination, QUAD vs WT (resistance level) ([5]; recombinant L-P enzymes): 24 fold |
| [N-]=[N+]=N[C@]1(COP(=O)(O)OP(=O)(O)OP(=O)(O)O)O[C@@H](n2ccc(N)nc2=O)[C@H](F)[C@@H]1O [2'F-4'N3-CTP] | 0.1 to 10 | 0.1 to 10 | dual RSV/HCV polymerase inhibitors | dual RSV/HCV polymerase inhibitors | both substrates and chain terminators | – |
| CC(C)C(=O)OC[C@@]1(CCl)O[C@@H](n2ccc(N)nc2=O)[C@H](F)[C@@H]1OC(=O)C(C)C [ALS-8176, 4'-chloromethyl-2'-deoxy-3',5'-di-O-isobutyryl-2'-fluorocytidine] | – | – | – | – | – | oral bioavailability [6]: high; difference in RSV RNA titers, vehicle vs treated, BAL ([7]; end of treatment): > 4 log10 copies/mL; difference in RSV RNA titers, vehicle vs treated, nasopharyngeal (NP) swab ([7]; end of treatment): about 3 log10 copies/mL; RSV RNA titer in bronchoalveolar lavage (BAL) samples ([7]; end of treatment (Day 5 post-infection), all four animals, LOD 50 copies/mL): < 50 copies/mL |
| Nc1ccn([C@@H]2O[C@](CCl)(CI)[C@@H](O)[C@H]2F)c(=O)n1 [ALS-8112-I, 4’-Chloromethyl-2’,5’-dideoxy-2’-fluoro-5’-iodocytidine] | – | – | – | – | – | inhibition of luciferase activity in the RSV replicon (in words) [8]: did not significantly inhibit |

Source: paper PMC4476725 (PLoS Pathogens, 2015)
